Read-outs that look alike come from different tables or passages of the source. Numbered stars: 1 amine (or outer) side, 2 acyl side, 3 side chain; on linkers, the order of the positions; unused ones are H or OH. Bridge positions count the residues as written; N and C are the ends. Square brackets hold non-standard residues; d marks the D form. Peptide text beside a SMILES is read from it. * marks the point of attachment. C20 diacid = O=C(O)CCCCCCCCCCCCCCCCCCC(=O)*; γGlu = O=C(O)[C@H](CCC(=O)[*:2])N[*:1]; NMeI = CC[C@H](C)[C@H](NC)C(=O)O; Sar = CNCC(=O)O
Columns and labels:
Sprague Dawley (SD) rats = assay: Acute food intake and body weight in normal Sprague Dawley rats; assay type: in vivo; settings: vehicle-corrected, dose 30 nmol/kg sc, once; for Body weight loss (%) after 96 hours: mean ± SEM, n = 8
How it was run: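 Normal male-unspecified SD rats, n = 8 per group, given a single s.c. peptide dose of 30 nmol/kg just before dark phase, with vehicle and positive control groups. Food intake recorded at 0, 4, 7, 10, 24, 48, 72 and 96 h; body weight daily; means ± SEM.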

[1] = biological target: T1, human calcitonin receptor (hCTR2) (Homo sapiens, UniProt P30988); assay: hCTR2 assay: induction of cAMP (AlphaScreen cAMP Assay kit) in COS7 cells expressing hCTR2; assay type: cell-based
T1 construct: expressed in transfected cells
T1 sequence (P30988 25-474): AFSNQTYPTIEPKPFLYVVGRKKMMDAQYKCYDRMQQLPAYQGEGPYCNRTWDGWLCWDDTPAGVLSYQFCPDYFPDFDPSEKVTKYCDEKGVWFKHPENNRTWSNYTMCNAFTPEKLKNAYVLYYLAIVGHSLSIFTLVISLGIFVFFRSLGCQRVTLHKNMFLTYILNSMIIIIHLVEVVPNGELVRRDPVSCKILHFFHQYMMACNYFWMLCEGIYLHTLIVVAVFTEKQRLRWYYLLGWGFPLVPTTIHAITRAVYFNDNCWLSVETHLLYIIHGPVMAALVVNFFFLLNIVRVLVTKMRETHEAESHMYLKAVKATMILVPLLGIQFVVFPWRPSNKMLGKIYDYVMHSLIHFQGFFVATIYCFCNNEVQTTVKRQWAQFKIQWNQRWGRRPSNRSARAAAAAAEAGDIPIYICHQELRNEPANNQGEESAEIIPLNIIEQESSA
How it was run: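 Stable RAMP-naive COS7 clone expressing hCTR2 was stimulated with increasing peptide concentrations in Tyrode buffer (pH 7.4) with 100 µM IBMX and 0.1% casein for 15 min at 37° C. Cells were lysed and cAMP measured by AlphaScreen. EC50 and efficacy relative to pramlintide came from 4PL curve fits.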

[2] = Solubility assessment (turbidity absorbance at 325 nm); assay type: physicochemical; settings: stock 2 mg/ml diluted 1:1, ambient temperature (typically 25°C), n=1; for Solubility, Acetate buffer pH 4: 100 mM acetate buffer pH 4.0; for Solubility, Acetate buffer pH 5: 100 mM acetate buffer pH 5.0; for Solubility, Histidine buffer pH 6: 100 mM histidine buffer pH 6.0; for Solubility, Histidine buffer pH 7: 100 mM histidine buffer pH 7.0; for Solubility, Phosphate buffer pH 6: 100 mM phosphate buffer pH 6.0; for Solubility, Phosphate buffer pH 7: 100 mM phosphate buffer pH 7.0; for Solubility, Phosphate buffer pH 7.5: 100 mM phosphate buffer pH7.5
How it was run: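 Stock 2 mg/ml peptide, H2O/HCl pH 2.5; 1:1 into 100 mM buffers: acetate pH 4.0/5.0, His pH 6.0/7.0, phosphate pH 6.0/7.0/7.5. A280 + A325, ~25°C, n=1. Soluble ≥ 1 mg/ml if A325 ≤ 0.02.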

Structure (SMILES) | Food intake inhibition (%) after 48 hours (Sprague Dawley (SD) rats) | Body weight loss (%) after 96 hours (Sprague Dawley (SD) rats) | EC50 ([1]; cAMP induction in COS7 cells expressing hCTR2, average of a minimum of 3 determinations, read-out: hCTR2 EC50) | Solubility, Acetate buffer pH 4 [2] | Solubility, Acetate buffer pH 5 [2] | Solubility, Histidine buffer pH 6 [2] | Solubility, Histidine buffer pH 7 [2] | Solubility, Phosphate buffer pH 6 [2] | Solubility, Phosphate buffer pH 7 [2] | Solubility, Phosphate buffer pH 7.5 [2] | EC50 [1]
CC[C@H](C)[C@@H](C(=O)N[C@@H](CC(C)C)C(=O)N[C@@H](CO)C(=O)N[C@@H](CO)C(=O)N[C@H](C(=O)N[C@@H](CC(=O)O)C(=O)N[C@H](C(=O)NCC(=O)N[C@@H](CO)C(=O)N[C@@H](CC(=O)O)C(=O)N[C@H](C(=O)N1CCC[C@H]1C(N)=O)[C@@H](C)O)C(C)C)[C@@H](C)O)N(C)C(=O)[C@H](C)NC(=O)CN(C)C(=O)[C@H](Cc1ccccc1)NC(=O)[C@H](CO)NC(=O)[C@H](CO)NC(=O)[C@H](CCCNC(=N)N)NC(=O)[C@H](Cc1c[nH]cn1)NC(=O)[C@H](CC(C)C)NC(=O)[C@H](Cc1ccccc1)NC(=O)[C@H](CCC(=O)O)NC(=O)[C@H](C)NC(=O)[C@H](CC(C)C)NC(=O)[C@H](CCCNC(=N)N)NC(=O)[C@H](CC(=O)O)NC(=O)[C@@H](NC(=O)[C@H](C)NC(=O)[C@@H]1CSSC[C@H](NC(=O)[C@H](CCCNC(=N)N)NC(=O)CC[C@H](NC(=O)CCCCCCCCCCCCCCCCCCC(=O)O)C(=O)O)C(=O)N2CCC[C@H]2C(=O)N[C@@H]([C@@H](C)O)C(=O)N[C@@H](C)C(=O)N[C@@H]([C@@H](C)O)C(=O)N1)[C@@H](C)O [Compound 172, [19CD]-isoGlu-RC()PTATC()ATDRLAEFLHRSSF-Gly(Me)-A-Ile(Me)-LSSTDVGSDTP-NH2] ({C20 diacid-γGlu}-RCPTATCATDRLAEFLHRSSF[Sar]A[NMeI]LSSTDVGSDTP-NH2; disulfide 2-7) | 99% | 13 ± 1.1% | 0.045 nM | SS (SS indicates solubility ≥ 1mg/ml) | SS (SS indicates solubility ≥ 1mg/ml) | SS (SS indicates solubility ≥ 1mg/ml) | SS (SS indicates solubility ≥ 1mg/ml) | SS (SS indicates solubility ≥ 1mg/ml) | SS (SS indicates solubility ≥ 1mg/ml) | SS (SS indicates solubility ≥ 1mg/ml) | –
CC[C@H](C)[C@@H](C(=O)N[C@@H](CC(C)C)C(=O)N[C@@H](CO)C(=O)N[C@@H](CO)C(=O)N[C@H](C(=O)N[C@@H](CC(N)=O)C(=O)N[C@H](C(=O)NCC(=O)N[C@@H](CO)C(=O)N[C@@H](CC(N)=O)C(=O)N[C@H](C(=O)N1CCC[C@H]1C(N)=O)[C@@H](C)O)C(C)C)[C@@H](C)O)N(C)C(=O)[C@H](C)NC(=O)CN(C)C(=O)[C@H](Cc1ccccc1)NC(=O)[C@H](CC(N)=O)NC(=O)[C@H](CC(N)=O)NC(=O)[C@H](CO)NC(=O)[C@H](CO)NC(=O)[C@H](CCCNC(=N)N)NC(=O)[C@H](Cc1c[nH]cn1)NC(=O)[C@H](CC(C)C)NC(=O)[C@H](Cc1ccccc1)NC(=O)[C@H](CCC(=O)O)NC(=O)[C@H](C)NC(=O)[C@H](CC(C)C)NC(=O)[C@H](CCCNC(=N)N)NC(=O)[C@H](CCC(N)=O)NC(=O)[C@@H](NC(=O)[C@H](C)NC(=O)[C@@H]1CSSC[C@H](NC(=O)[C@H](Cc2c[nH]c3ccccc23)NC(=O)[C@H](CCCNC(=N)N)NC(=O)CC[C@H](NC(=O)CCCCCCCCCCCCCCCCCCC(=O)O)C(=O)O)C(=O)N[C@@H](CC(N)=O)C(=O)N[C@@H]([C@@H](C)O)C(=O)N[C@@H](C)C(=O)N[C@@H]([C@@H](C)O)C(=O)N1)[C@@H](C)O [Compound 174, [19CD]-isoGlu-RWC()NTATC()ATQRLAEFLHRSSNNF-Gly(Me)-A-Ile(Me)-LSSTNVGSNTP-NH2] ({C20 diacid-γGlu}-RWCNTATCATQRLAEFLHRSSNNF[Sar]A[NMeI]LSSTNVGSNTP-NH2; disulfide 3-8) | 99% | 8 ± 1.4% | – | SS (SS indicates solubility ≥ 1mg/ml) | SS (SS indicates solubility ≥ 1mg/ml) | SS (SS indicates solubility ≥ 1mg/ml) | SS (SS indicates solubility ≥ 1mg/ml) | SS (SS indicates solubility ≥ 1mg/ml) | SS (SS indicates solubility ≥ 1mg/ml) | II (II indicates solubility ≤ 1 mg/ml) | 0.18 nM

— patent EP3046573B1, “AMYLIN ANALOGUES” (Zealand Pharma A/S, priority 2013, dated 2015)
